From publication PMC8012336, “An automated and high-throughput-screening compatible pluripotent stem cell-based test platform for developmental and reproductive toxicity assessment of small molecule compounds” (Cell Biology and Toxicology, 2020)
≈ marks a conversion by molar mass, not a printed value. Where two headings read alike, the source gives them in different places.

What was measured:
mESC-D3 [1] = assay: Conventional mouse ES-D3 differentiation assay in hanging drop format (petri dish; cardiomyocyte contraction, day 10); type: cell-based; details: manual; beating cardiomyocytes at day 10; in brackets the two individual experiments
Description: Separate Petri dishes were used for each concentration of test compound, untreated control, and solvent control. […] The EB suspension was incubated for 2 days. On day five of the assay, a fresh compound dilution series was prepared in media and transferred into 24-well cell culture plates (1 ml/well, Greiner bio-one, Cat. No. 662641). A separate 24-well plate was used for each compound concentration, untreated control, and solvent control (24 wells per condition). One EB was transferred from the Petri dish into each well of the 24-well plate. After further 5 days of incubation (= day 10 of the assay), cardiomyocyte contraction was determined in each well under the light microscope.

mESC-D3 [2] = type: cell-based, mouse; details: for ID50 FACS (MHC-positive cells): flow cytometry, day 7
Description: As an alternative to the morphological analysis at day 10, differentiation can be analyzed at day 7 of the assay by flow cytometry using the molecular flow EST (Buesen et al. [2009]). Previously, staining of cardiomyocytes was performed using an unconjugated primary monoclonal antibody directed against the sarcomeric MHC (clone MF20), followed by binding of a secondary biotin-conjugated goat anti-mouse IgG antibody which is then detected with the fluorochrome PE-SA (phycoerythrin-conjugated streptavidin) (Seiler and Spielmann [2011]). […] Of note, these experiments were performed in parallel with the same batch of spontaneously differentiated mESCs.
Embryoid bodies were formed in hanging drops (Petri dish) as already described. On day 5 of the assay, the EBs were transferred into a larger Petri dish and incubated for two more days at 37 °C, 5% CO2, and 95% humidity. Afterward, the EBs were dissociated using the Embryoid Body Dissociation Kit (Miltenyi Biotec, Cat. No. 130-096-348). EBs from two Petri dishes were harvested in one 15 ml tube and washed once with 10 ml PBS. The supernatant was discarded after centrifugation and a pre-warmed enzyme mix was added. The EB/enzyme mix was incubated for 10 min at 37 °C, dissociated for 1 min with a 1000 μl pipette, incubated for 5 min and mechanically dissociated again for 1 min. After the addition of 3 ml PBS, the cell suspension was passed through a 70-μm filter into a new 15-ml tube. The filter was then washed with 3 ml PBS and discarded afterward. The cell suspension was centrifuged for 5 min at 300 rpm. The supernatant was discarded afterward, cells were suspended in PBS and counted. For viability staining, 10^6 cells were suspended in 100 μl staining reagent (LIVE/DEAD™ Fixable Green Dead Stain Kit, Life Technologies, Cat. No. L34969), incubated for 30 min at 4 °C and washed with 1 ml PBS. For fixation, cells were suspended in 100 μl fixation buffer (BioLegend, Cat. No. 420801) and incubated 20 min at room temperature. For the intracellular staining, cells were washed twice with 1 ml permeabilization buffer (BioLegend, Cat. No. 421002) and suspended in 50 μl permeabilization buffer supplemented with 50 μl of pre-diluted (1:5) antibody (mouse IgG2B anti-human Myosin Heavy Chain APC-conjugated, mouse IgG2B APC-conjugated isotype control, R&D Systems, Cat. No. IC4470A). After 1 h incubation at room temperature cells were washed twice with 1 ml permeabilization buffer and suspended in FACS buffer. Within 2–3 h samples were measured on an LSR II flow cytometer (Beckton Dickinson). Data analysis was done using FlowJo software (Version 10.0.8; Tree Star).

mESC-D3 [3] = assay: Automated mESC-D3 differentiation assay in 96-well round-bottom ultra-low attachment plates (cardiomyocyte contraction, day 10); type: cell-based, mouse; details: beating cardiomyocytes at day 10, in brackets the two independent runs
Description: The mESC-D3 differentiation assay was automated in 96-well round-bottom ultra-low attachment plates (Costar, Cat. No. 7007) on the lab automation platform Fluent (Tecan). The method was set up for testing up to three different compounds in an automated procedure, resulting in maximal 9 plates that were being processed. A 7-point dilution series of test compounds and control solutions were prepared in PBS or DMSO under the laminar flow, transferred to a 96-well 0.5 ml Masterblock plate, and placed on the Fluent worktable. There the compounds were further diluted in growth media in a 96-well 2 ml Masterblock plate using the FCA. Of the compound solution, 10 μl/well were dispensed into a 96-well round well ultra-low attachment plate. In the meantime, a suspension of mESC-D3 (3.75 × 10^4 cells/ ml) was prepared in growth media and was placed in a trough on the worktable. The cell suspension was transferred into the 96-well round-bottom ultra-low attachment plate (40 μl/well) using the FCA. After 2 days of incubation at 37 °C, 5% CO2, and 95% humidity fresh compound and control solutions were prepared and added to the 96-well U-bottom plate (200 μl/well). On day five of the assay freshly prepared compound and control solutions were dispensed into a 96-well imaging plate (200 μl/well, Greiner bio-one, Cat. No. 655866). Using the MCA, the supernatant was aspirated from the 96-well round-bottom ultra-low attachment plate, the EB at the bottom of the well was aspirated and transferred into the prefilled imaging plate. On day 7, the cell supernatant was partially replaced with a fresh compound solution. Therefore, the media was aspirated using the MCA and the fresh compound solution was dispensed with the FCA. After further 3 days of incubation (= day 10 of the assay) cardiomyocyte contraction was determined in each well under the light microscope. Afterward, cells were stained and analyzed using the Opera High Content Screening System (PerkinElmer).
Toxicity data from the MTT and CellTiter-Glo Assay was normalized against the vehicle control (100% viability) and plotted against the logarithmic compound concentration.

[4] = system: mESC-D3 and NIH/3T3 cells; details: for Compound classification (Seiler and Spielmann [2011]): automated mouse EST assay; for Compound classification: manual murine EST assay, prediction model of Seiler and Spielmann 2011
NIH/3T3 = system: NIH/3T3; design: method as in Scholz et al. [1999]; details: ZEBET value, 7 d result; ref Scholz et al. [1999]; cited from earlier work
mESC-D3 [5] = system: mESC-D3; design: method as in Scholz et al. [1999]; details: ZEBET value, 7 d result; ref Scholz et al. [1999]; cited from earlier work
mESC-D3 [6] = system: mESC-D3; design: method as in Scholz et al. [1999]; details: ZEBET value printed beside hanging drop differentiation result; ref Scholz et al. [1999]; cited from earlier work

| SMILES | Differentiation assay in hanging drop (petri dish) ID50 mESC-D3 (mESC-D3 [1]) | ID50 FACS (MHC-positive cells) (mESC-D3 [2]) | MHC-positive cells (mESC-D3 [2]; treated with 10 μg/ml, untreated 31% (hydroxyurea), 26% (fumonisine B1)) | Differentiation assay in round bottom ULA microplate ID50 mESC-D3 (mESC-D3 [3]) | Differentiation assay in round bottom ULA microplate ID50 mESC-D3 (mESC-D3 [3]; listed as hydroxyurea) | Compound classification (Seiler and Spielmann [2011]) [4] | Compound classification [4] | IC50 NIH/3T3 (ZEBET) (NIH/3T3) | IC50 mESC-D3 (ZEBET) (mESC-D3 [5]) | ID50 mESC-D3 (ZEBET) (mESC-D3 [6]) | MHC-positive cells (mESC-D3 [2]; treated with 1000 μg/ml, untreated 25%) | Differentiation assay in round bottom ULA microplate ID50 mESC-D3 (mESC-D3 [3]; listed as saccharin) |
| --- | --- | --- | --- | --- | --- | --- | --- | --- | --- | --- | --- | --- |
| NC(=O)NO [Hydroxyurea, hydroxyurea] | 2.55 (2.56; 2.54) µg/ml | 5.65 µg/mL (≈ 74.3 µM) | 4% | 2.69 (2.86; 2.52) μg/ml | 2.69 µg/mL | Strong embryotoxicity | strong embryotoxicity | 7.2 µg/mL (≈ 94.7 µM) | 2.0 µg/mL (≈ 26.3 µM) | 1.7 µg/mL (≈ 22.4 µM) |  |  |
| O=C1NS(=O)(=O)c2ccccc21 [Saccharin, saccharin] | 1000 (> 1000; > 1000) µg/ml | > 1000 µg/mL |  | > 1000 (> 1000; > 1000) μg/ml |  | No embryotoxicity | no embryotoxicity | 3000 µg/mL (≈ 16400 µM) | 3498 µg/mL (≈ 19100 µM) | 2000 µg/mL (≈ 10900 µM) | 19% | > 1000 µg/mL |
